Data: patent US11498920B2, “4-(1H-imidazol-5-yl)-1H-pyrrolo[2, 3-b] pyridines for use in the treatment of leukaemias, lymphomas and solid tumors” (MASARYKOVA UNIVERZITA, priority 2018, dated 2022)

How the values were obtained:
primary CLL cells = test: Cytotoxicity, TMRE flow cytometry viability, primary CLL cells (Example II.1); assay type: cell-based; conditions: Homo sapiens, CLL cell, 6 hours, TMRE positive cells normalized to control, ratio to PF670462, <1 = higher cytotoxicity than PF670462, read-out: Viability of cells, Compound of formula I (100 μM), relative to PF670462 (100 μM), CLL primary cells
Protocol: (§1) The leukemia and lymphoma-derived cell lines [MEC-1 cell line (derived from chronic lymphocytic leukemia—CLL), Nalm-16 (acute lymphocytic leukemia—ALL), K562 (chronic myeloid leukemia—CML), HL-60 (acute myeloid leukemia—AML), Maver-1 and Mino (mantle cell lymphoma—MCL), BL-41 (Burkitt lymphoma—BL), WSU-NHL (follicular lymphoma—FL), SUDHL (diffuse large B-cell lymphoma—DLBCL)], primary CLL cells and nonmalignant control primary cells were cultured in suspension in flasks under the following conditions: RPMI 1640 medium (Hyclone) supplemented with 10% fetal bovine serum (FBS, Gibco) and 1% penicillin/streptomycin (Life Technologies), 37° C., 5% CO2 and 95% relative humidity, with optimal culture cell density 5×10^6 cells/mL in case of primary cells and 0.5-1×10^6 cells/mL in case of cell lines. The adherent cell lines [A375 (derived from malignant melanoma), MDA-MB-231 and MCF-7 (breast cancer), MIA-PA-CA and PANC1 (pancreatic cancer), PC3 (prostate cancer), OVCAR4 (ovarian cancer) and HEPG2 (hepatocellular carcinoma)] were cultured on plates under the same conditions using RPMI1640 or DMEM medium (Gibco) according to instructions provided by the distributor (DSMZ/ATCC).
(§2) Cytotoxicity of compounds of formula I was tested in two models representative for leukemia (primary CLL cells) and lymphoma (Maver-1 cells). The primary CLL cells and Maver-1 cells (MCL-derived) were incubated with inhibitors at 100 μM concentration or corresponding amount of solvent (DMSO, Sigma Aldrich) as 0.1×10^6 cells/200 μl per well in a 96-well plate. Experiments were performed in technical duplicates. Viability of cells was assessed after 6 hours in case of primary CLL cells and after 24 hours in case of Maver-1 cells.
(§3) Apoptosis-induced reduction of mitochondrial potential is detected as lower TMRE fluorescence. […] Relative values are presented, showing ratio to the effect of PF670462 (as the closest prior art). Relative value <1 indicates a higher cytotoxicity than PF670462.

[1] = test system: Maver-1 cells (mantle cell lymphoma); test: Cytotoxicity, TMRE flow cytometry viability, Maver-1 cells (Example II.1); assay type: cell-based; conditions: Homo sapiens, Maver1, 24 hours, TMRE positive cells normalized to control, ratio to PF670462, <1 = higher cytotoxicity than PF670462, read-out: Viability of cells, Compound of formula I (100 μM), relative to PF670462 (100 μM), Maver-1 cells (mantle cell lymphoma)
Protocol: as §1, §2, §3

`CN(C)CCS(=O)(=O)N[C@H]1CC[C@@H](n2cnc(-c3ccc(F)cc3)c2-c2ccnc3[nH]ccc23)CC1` [Preparative Example 98, 2-(dimethylamino)-N-((1R,4s)-4-(4-(4-fluorophenyl)-5-(1H-pyrrolo[2,3-b]pyridin-4-yl)-1H-imidazol-1-yl)cyclohexyl)ethane-1-sulfonamide] was tested, and the viability at 100 µM (primary CLL cells) was 16% and the viability at 100 µM [1] was 3%.

`CN(C)CCCS(=O)(=O)N[C@H]1CC[C@@H](n2cnc(-c3ccc(F)cc3)c2-c2ccnc3[nH]ccc23)CC1` [Preparative Example 100, 3-(dimethylamino)-N-((1R,4s)-4-(4-(4-fluorophenyl)-5-(1H-pyrrolo[2,3-b]pyridin-4-yl)-1H-imidazol-1-yl)cyclohexyl)propane-1-sulfonamide] showed a viability at 100 µM (primary CLL cells) of 1% and a viability at 100 µM [1] of 0%.

Work on `Cc1nc(Cn2cnc(-c3ccc(F)cc3)c2-c2ccnc3[nH]ccc23)cs1` [Preparative Example 108, 4-((4-(4-fluorophenyl)-5-(1H-pyrrolo[2,3-b]pyridin-4-yl)-1H-imidazol-1-yl)methyl)-2-methylthiazole] yielded a viability at 100 µM (primary CLL cells) of 74% and a viability at 100 µM [1] of 82%.

For `Fc1ccc(-c2ncn(Cc3cc[nH]n3)c2-c2ccnc3[nH]ccc23)cc1` [Preparative Example 109, 4-(1-((1H-pyrazol-3-yl)methyl)-4-(4-fluorophenyl)-1H-imidazol-5-yl)-1H-pyrrolo[2,3-b]pyridine], the viability at 100 µM (primary CLL cells) was 87% and the viability at 100 µM [1] was 31%.

`Fc1ccc(-c2ncn(CC3CNCCO3)c2-c2ccnc3[nH]ccc23)cc1` (stereo not shown) [Preparative Example 114, 2-((4-(4-fluorophenyl)-5-(1H-pyrrolo[2,3-b]pyridin-4-yl)-1H-imidazol-1-yl)methyl)morpholine] gave a viability at 100 µM (primary CLL cells) of 78% and a viability at 100 µM [1] of 27%.

Work on `CN(C)[C@H]1C[C@H](n2cnc(-c3ccc(F)cc3)c2-c2ccnc3[nH]ccc23)C1` [Preparative Example 124, (1S,3r)-3-(4-(4-fluorophenyl)-5-(1H-pyrrolo[2,3-b]pyridin-4-yl)-1H-imidazol-1-yl)-N,N-dimethylcyclobutan-1-amine] yielded a viability at 100 µM (primary CLL cells) of 55% and a viability at 100 µM [1] of 53%.

Molecule `CN(C)[C@H]1CC[C@H](n2cnc(-c3ccc(F)cc3)c2-c2ccnc3[nH]ccc23)CC1` [Preparative Example 125, (1S,4r)-4-(4-(4-fluorophenyl)-5-(1H-pyrrolo[2,3-b]pyridin-4-yl)-1H-imidazol-1-yl)-N,N-dimethylcyclohexan-1-amine] has a viability at 100 µM (primary CLL cells) of 28% and a viability at 100 µM [1] of 26%.

`CN1CCC(Cn2cnc(-c3ccc(F)cc3)c2-c2ccnc3[nH]ccc23)C1` (stereo not shown) [Preparative Example 129, 4-(4-(4-fluorophenyl)-1-((1-methylpyrrolidin-3-yl)methyl)-1H-imidazol-5-yl)-1H-pyrrolo[2,3-b]pyridine] was tested, and the viability at 100 µM (primary CLL cells) was 78% and the viability at 100 µM [1] was 86%.

For `Fc1ccc(-c2ncn(C3CCCCC3)c2-c2ccnc3[nH]cc(Br)c23)cc1` [Preparative Example 134, 3-bromo-4-(1-cyclohexyl-4-(4-fluorophenyl)-1H-imidazol-5-yl)-1H-pyrrolo[2,3-b]pyridine], the viability at 100 µM (primary CLL cells) was 22% and the viability at 100 µM [1] was 1%.

Molecule `Fc1ccc(-c2nc(Br)n(C3CCCCC3)c2-c2ccnc3[nH]ccc23)cc1` [Preparative Example 135, 4-(2-bromo-1-cyclohexyl-4-(4-fluorophenyl)-1H-imidazol-5-yl)-1H-pyrrolo[2,3-b]pyridine] has a viability at 100 µM (primary CLL cells) of 9% and a viability at 100 µM [1] of 0%.

`CSc1nc(-c2ccc(F)cc2)c(-c2ccnc3[nH]ccc23)n1C1CCCCC1` [Preparative Example 136, 4-(1-cyclohexyl-4-(4-fluorophenyl)-2-(methylthio)-1H-imidazol-5-yl)-1H-pyrrolo[2,3-b]pyridine] showed a viability at 100 µM (primary CLL cells) of 47% and a viability at 100 µM [1] of 0%.

Molecule `CN1CCC(Cn2cnc(-c3ccc(F)c(Cl)c3)c2-c2ccnc3[nH]ccc23)CC1` [Preparative Example 141, 4-(4-(3-chloro-4-fluorophenyl)-1-((1-methylpiperidin-4-yl)methyl)-1H-imidazol-5-yl)-1H-pyrrolo[2,3-b]pyridine] has a viability at 100 µM (primary CLL cells) of 43% and a viability at 100 µM [1] of 0%.

`CN(C)[C@H]1CC[C@H](n2cnc(-c3ccc(F)c(Cl)c3)c2-c2ccnc3[nH]ccc23)CC1` [Preparative Example 142, (1R,4r)-4-(4-(3-chloro-4-fluorophenyl)-5-(1H-pyrrolo[2,3-b]pyridin-4-yl)-1H-imidazol-1-yl)-N,N-dimethylcyclohexan-1-amine] showed a viability at 100 µM (primary CLL cells) of 5% and a viability at 100 µM [1] of 0%.

For `Fc1ccc(-c2ncn(C3CCCCC3)c2-c2ccnc3[nH]cc(Cl)c23)cc1` [Preparative Example 144, 3-chloro-4-(1-cyclohexyl-4-(4-fluorophenyl)-1H-imidazol-5-yl)-1H-pyrrolo[2,3-b]pyridine], the viability at 100 µM (primary CLL cells) was 36% and the viability at 100 µM [1] was 1%.

For `CC(c1ccccc1)n1cnc(-c2ccc(F)cc2)c1-c1ccnc2[nH]ccc12` (stereo not shown) [Preparative Example 146, 4-(4-(4-fluorophenyl)-1-(1-phenylethyl)-1H-imidazol-5-yl)-1H-pyrrolo[2,3-b]pyridine], the viability at 100 µM (primary CLL cells) was 16% and the viability at 100 µM [1] was 0%.

`Fc1ccc(-c2ncn(Cc3c[nH]nn3)c2-c2ccnc3[nH]ccc23)cc1` [Preparative Example 153, 4-(1-((1H-1,2,3-triazol-4-yl)methyl)-4-(4-fluorophenyl)-1H-imidazol-5-yl)-1H-pyrrolo[2,3-b]pyridine] gave a viability at 100 µM (primary CLL cells) of 117% and a viability at 100 µM [1] of 87%.

Molecule `Fc1ccc(-c2nc(Cl)n(C3CCCCC3)c2-c2ccnc3[nH]ccc23)cc1` [Preparative Example 155, 4-(2-chloro-1-cyclohexyl-4-(4-fluorophenyl)-1H-imidazol-5-yl)-1H-pyrrolo[2,3-b]pyridine] has a viability at 100 µM (primary CLL cells) of 1% and a viability at 100 µM [1] of 0%.

With `CCOC(=O)c1nc(-c2ccc(F)cc2)c(-c2ccnc3[nH]ccc23)n1C1CCCCC1` [Preparative Example 163, ethyl 1-cyclohexyl-4-(4-fluorophenyl)-5-(1H-pyrrolo[2,3-b]pyridin-4-yl)-1H-imidazole-2-carboxylate] the viability at 100 µM (primary CLL cells) was 57% and the viability at 100 µM [1] was 10%.

In the case of `NC(=O)c1nc(-c2ccc(F)cc2)c(-c2ccnc3[nH]ccc23)n1C1CCCCC1` [Preparative Example 165, 1-cyclohexyl-4-(4-fluorophenyl)-5-(1H-pyrrolo[2,3-b]pyridin-4-yl)-1H-imidazole-2-carboxamide], the viability at 100 µM (primary CLL cells) is reported as 0% and the viability at 100 µM [1] is reported as 0%.

`OCc1nc(-c2ccc(F)cc2)c(-c2ccnc3[nH]ccc23)n1C1CCCCC1` [Preparative Example 166, (1-cyclohexyl-4-(4-fluorophenyl)-5-(1H-pyrrolo[2,3-b]pyridin-4-yl)-1H-imidazol-2-yl)methanol] gave a viability at 100 µM (primary CLL cells) of 7% and a viability at 100 µM [1] of 4%.

`CN(C)Cc1nc(-c2ccc(F)cc2)c(-c2ccnc3[nH]ccc23)n1C1CCCCC1` [Preparative Example 169, 1-(1-cyclohexyl-4-(4-fluorophenyl)-5-(1H-pyrrolo[2,3-b]pyridin-4-yl)-1H-imidazol-2-yl)-N,N-dimethylmethanamine] gave a viability at 100 µM (primary CLL cells) of 12% and a viability at 100 µM [1] of 0%.

`Nc1cc(-c2c(-c3ccc(F)cc3)ncn2C2CCCCC2)c2cc[nH]c2n1` [Preparative Example 170, 4-(1-cyclohexyl-4-(4-fluorophenyl)-1H-imidazol-5-yl)-1H-pyrrolo[2,3-b]pyridin-6-amine] was tested, and the viability at 100 µM (primary CLL cells) was 56% and the viability at 100 µM [1] was 6%.

In the case of `Fc1ccc(-c2ncn(Cc3ccccc3)c2-c2ccnc3[nH]ccc23)cc1F` [Preparative Example 179, 4-(1-benzyl-4-(3,4-difluorophenyl)-1H-imidazol-5-yl)-1H-pyrrolo[2,3-b]pyridine], the viability at 100 µM (primary CLL cells) is reported as 1% and the viability at 100 µM [1] is reported as 0%.
